Test results: US11452731B2, “Method of treating and preventing loss of cognition” (ENDORECHERCHE, INC., priority 2009, dated 2022)
Marks after values point to notes of the source that are not given here.

Legend:
[1] = Endometrial epithelium thickness in OVX nude mice after 161 days of antiestrogen (Example 8); type: in vivo; conditions: for inhibition of the stimulatory effect of estrone on epithelial height: 50 μg daily oral, estrone stimulation; for height of uterine epithelial cells, % of the OVX control group value: 200 μg daily, absence of estrone
Text: The 17 groups included two control groups (OVX and OVX+Estrone), seven groups supplemented with an estrone implant and treated with an antiestrogen and eight other groups that received an antiestrogen alone. The estrone implants were then removed from the animals in the ovariectomized control group (OVX) and in groups that were to receive the antiestrogen alone. […] Tamoxifen was purchased from […]) while toremifene citrate was purchased from Orion (Espoo, Finland). […] The antiestrogen suspensions at the appropriate concentration were prepared each month, stored at 4° C. and used under constant agitation. Powder stock were hermetically stored at 4° C. […] After 161 days of treatment, the remaining animals were anesthetized with isoflurane and killed by exsanguination. […] The uteri were prepared to evaluate endometrial thickness by image analysis performed with Image Pro-Plus (Media Cybernetics, Maryland, USA). […] Hematoxylin- and eosin-stained sections of mice uteri were analyzed. […] Mean epithelial cell height was measured in all animals of each group.

[2] = tested on: ZR-75-1 human breast cancer xenografts; test: Growth and response of human ZR-75-1 breast tumors in OVX nude mice, 7 antiestrogens for 161 days with or without estrone (Example 8); type: in vivo; conditions: for increase of average tumor size over baseline (agonistic effect) / tumors in the progression category, % / tumors in the progression category, number of total: absence of estrone, 200 μg daily; for increase of average tumor size over baseline (agonistic effect) / tumors in the progression category, % / tumors in the progression category, number of total / progressing tumors, % of tumors / progressing tumors, number of total: 161 days; for average tumor size above pretreatment values: estrone-stimulated, 50 μg oral daily, 23 weeks; for progressing tumors, % of tumors / progressing tumors, number of total: estrone-supplemented, 50 μg daily
Method: ZR-75-1 human breast cancer cells were obtained from the American Type Culture Collection (Rockville, Md.) and cultured in phenol red-free RPMI-1640 medium. […] (Saint-Constant, Québec, Canada). The mice (5 per cage) were housed in vinyl cages equipped with air filter lids, which were kept in laminar airflow hoods and maintained under pathogen-limiting conditions. The photoperiod was 12 hours of light and 12 hours of darkness (lights on at 07:15). Cages, bedding and food (Agway Pro-Lab R-M-H Diet #4018) were autoclaved before use. Water was autoclaved and provided ad libitum. Bilateral ovariectomy was performed under isoflurane-induced anesthesia. […] Randomization and treatments were started one week later. […] The estrone implants were then removed from the animals in the ovariectomized control group (OVX) and in groups that were to receive the antiestrogen alone. […] Tamoxifen was purchased from […]) while toremifene citrate was purchased from Orion (Espoo, Finland). […] The antiestrogen suspensions at the appropriate concentration were prepared each month, stored at 4° C. and used under constant agitation. Powder stock were hermetically stored at 4° C. […] Two perpendicular diameters were recorded and tumor area (mm2) was calculated using the formula: […] Tumor response was assessed at the end of the study or at death of each animal, if it occurred during the course of the experiment. In this case, only data of mice that survived for at least half of the study ([…]) were used in the tumor response analysis.

[3] = Uterine and vaginal weight in ovariectomized BALB/c mice treated orally for 9 days with or without estrone (Example 3); type: in vivo; conditions: for inhibition of estrone-stimulated uterine weight / inhibition of vaginal weight (estrone-stimulated): OVX mice + estrone; for stimulation of uterine weight (estrogenic effect) / stimulation of vaginal weight (estrogenic effect): OVX mice, absence of estrone, 10 μg daily (no-effect statements: 1 μg and 10 μg)
Method: Female BALB/c mice (BALB/cAnNCrlBR) weighing 18-20 g were obtained from Charles-River, Inc. (St-Constant, Quebec, Canada) and housed 5 per cage in a temperature (23±1° C.)- and light (12 h light/day, lights on at 7:15)-controlled environment. The mice were fed rodent chow and tap water ad libitum. The animals were ovariectomized (OVX) under Isoflurane anesthesia via bilateral flank incisions and randomly assigned to groups of 10 animals. Ten mice were kept intact as controls.
In the second experiment (Table 6), TSE 424 was administered orally by gavage once daily at doses of 1, 3, 10 or 30 μg/animal for 9 days, starting 2 days after ovariectomy. In both experiments, to evaluate the antiestrogenic activity, treatment with estrone (E1, […], s.c. injection, twice daily) was started 5 days post-ovariectomy and was administered for a 6 day-period. Compounds were dissolved in ethanol (4% final concentration) and administered in 0.4% methylcellulose. Mice in the intact and OVX control groups received the vehicle alone (4% ETOH-0.4% methylcellulose) during the 9-day period. The animals were killed by exsanguination at the abdominal aorta on the 11th morning following ovariectomy. The uteri and vagina were rapidly dissected, weighed, and kept in 10% buffered formalin for further histologic examination.

human Ishikawa cells = test: Alkaline phosphatase activity in human endometrial adenocarcinoma Ishikawa cells (Example 6); conditions: for IC50 / Emax: Homo sapiens, Ishikawa, 120 h; for IC50: read-out: Inhibition of 1 nM E2-induced stimulation of alkaline phosphatase IC50; for Emax: read-out: Maximal stimulation of alkaline phosphatase % of 1 nM E2 stimulation; for Maximal inhibition of 1 nM E2-induced stimulation of alkaline phosphatase: Ishikawa cells, 5-day incubation
[4] = 3-month treatment of ovariectomized rats: lumbar spine BMD, total body fat, serum cholesterol, ALP (Example 4, experiment 1); type: in vivo, rat; conditions: OVX rats, 3 months
Method: Ten to twelve week-old female Sprague-Dawley rats (Crl:CD(SD)Br) (Charles River Laboratory, St-Constant, Canada) weighing approximately 220-270 g at start of treatment were used. The animals were acclimatized to the environmental conditions (temperature: 22±3° C.; humidity: 50±20%; 12-h light-12-h dark cycles, lights on at 07:15 h) for at least 1 week before starting the experiments. The animals were housed individually and were allowed free access to tap water and a pelleted certified rodent feed (Lab Diet 5002, Ralston Purina, St-Louis, Mo.). Experiments were conducted in an animal facility approved by the Canadian Council on Animal Care (CCAC) and the Association for Assessment and Accreditation of Laboratory Animal Care (AAALAC) in accordance with the CCAC Guide for Care and Use of Experimental Animals.
On day 1 of the study, the animals of the appropriate groups were bilaterally ovariectomized (OVX) under isoflurane anesthesia. The DHEA was applied topically on the dorsal skin as a solution in 50% ethanol-50% propylene glycol while the other tested compounds were administered as suspension in 0.4% methylcellulose by oral gavage. Treatments were initiated on day 2 of the study and were performed once daily during 3 months.
After 3 months (experiment 1) or 26 weeks (experiment 2) of treatment, individual rats under Isoflurane anesthesia had their whole body skeleton and lumbar spine scanned using dual energy x-ray absorptiometry (DEXA; QDR 4500A, Hologic, Waltham, Mass.) and a Regional High Resolution Scan software. The bone mineral density (BMD) of the lumbar spine (vertebrae L2 to L4) and the total body composition (fat percentage) were determined.
After 3 months (experiment 1) or 26 weeks (experiment 2) of treatment, blood samples were collected at the jugular vein from overnight fasted animals (under Isoflurane anesthesia). Samples were processed for serum preparation and frozen at −80° C. until assay. Serum cholesterol levels and alkaline phospatase activity (ALP) were determined using the Boehringer Mannheim Diagnostic Hitachi 911 Analyzer (Boehringer Mannheim Diagnostic Laboratory Systems).

[5] = OVX + E1, antiestrogen 50 μg daily
[6] = OVX without E1, antiestrogen 200 μg daily
[7] = E2 1 mg/kg, EM-652.HCl 2.5 mg/kg, DHEA 80 mg/kg

CC/C(=C(\c1ccc(I)cc1)c1ccc(OCCN2CCCC2)cc1)c1ccccc1 [Idoxifene, (E)-1-[2-[4-[1-(4-Iodophenyl)-2-phenyl-1-butenyl]phenoxy]ethyl]pyrrolidine]
inhibition of the stimulatory effect of estrone on epithelial height [1]: 50%
height of uterine epithelial cells, % of the OVX control group value [1]: 176%
ENDOMETRIAL EPITHELIUM THICKNESS (μm) ± SEM [1, 5]: 29.35^b,d ± 0.05 μm
ENDOMETRIAL EPITHELIUM THICKNESS (μm) ± SEM [1, 6]: 32.14^b,d ± 0.05 μm
increase of average tumor size over baseline (agonistic effect) [2]: 125%
tumors in the progression category, % [2]: 33%
tumors in the progression category, number of total [2]: 8 of 24
average tumor size above pretreatment values [2]: 86%
progressing tumors, % of tumors [2]: 71%
progressing tumors, number of total [2]: 20 of 28

CN(C)CCOc1ccc(/C(=C(/CCCl)c2ccccc2)c2ccccc2)cc1 [Toremifene, (Z)-2-[4-(4-Chloro-1,2-diphenyl-1-butenyl)phenoxy]-N,N-dimethylethanamine]
inhibition of the stimulatory effect of estrone on epithelial height [1]: 41%
height of uterine epithelial cells, % of the OVX control group value [1]: 135%
ENDOMETRIAL EPITHELIUM THICKNESS (μm) ± SEM [1, 5]: 31.47^b,d ± 0.04 μm
ENDOMETRIAL EPITHELIUM THICKNESS (μm) ± SEM [1, 6]: 24.75^b,c ± 0.04 μm
increase of average tumor size over baseline (agonistic effect) [2]: 86%
tumors in the progression category, % [2]: 21%
tumors in the progression category, number of total [2]: 6 of 28
average tumor size above pretreatment values [2]: 230%
progressing tumors, % of tumors [2]: 89%
progressing tumors, number of total [2]: 25 of 28

Oc1ccc2c(c1)CC[C@@H](c1ccccc1)[C@H]2c1ccc(OCCN2CCCC2)cc1 (single isomer, unassigned) [inactive enantiomer of lasofoxifene]
inhibition of estrone-stimulated uterine weight ([3]; any dose used (1, 3, 10 μg)): no inhibitory effect
inhibition of vaginal weight (estrone-stimulated) ([3]; any dose used (1, 3, 10 μg)): no inhibitory effect
stimulation of uterine weight (estrogenic effect) [3]: no stimulatory effect
stimulation of vaginal weight (estrogenic effect) [3]: no stimulatory effect

CN(C)CCOc1ccc(/C(=C(/CCCl)c2ccccc2)c2ccc(O)cc2)cc1 [OH-Toremifene, (Z)-(2)-2-[4-(4-chloro-1-(4-hydroxyphenyl)-2-phenyl-1-butenyl)phenoxy]-N,N-dimethylethanamine]
IC50 (human Ishikawa cells): 72.1 ± 7.6 nM
Emax (human Ishikawa cells): 29.6 ± 2.1%
Maximal inhibition of 1 nM E2-induced stimulation of alkaline phosphatase (human Ishikawa cells): 75.73 ± 3.52 (3)

Cl.O=C(c1ccc(OCCN2CCCCC2)cc1)c1c(-c2ccc(O)cc2)sc2cc(O)ccc12 [Raloxifene, [2-(4-hydroxyphenyl)-6-hydroxybenzo[b]thien-3-yl] [4-[2-(1-piperidinyl)ethoxy]phenyl]-methanone hydrochloride]
inhibition of estrone-stimulated uterine weight ([3]; oral 9 days, 1 μg daily): 6%
inhibition of estrone-stimulated uterine weight ([3]; oral 9 days, 3 μg daily): 14%
inhibition of estrone-stimulated uterine weight ([3]; oral 9 days, 10 μg daily): 43%
inhibition of vaginal weight (estrone-stimulated) ([3]; oral 9 days, 10 μg daily): 24%
stimulation of uterine weight (estrogenic effect) [3]: 85%
stimulation of vaginal weight (estrogenic effect) [3]: 56%
inhibition of the stimulatory effect of estrone on epithelial height [1]: 26%
height of uterine epithelial cells, % of the OVX control group value [1]: 122%
ENDOMETRIAL EPITHELIUM THICKNESS (μm) ± SEM [1, 5]: 34.72^b,d ± 0.06 μm
ENDOMETRIAL EPITHELIUM THICKNESS (μm) ± SEM [1, 6]: 22.33^a ± 0.05 μm
increase of average tumor size over baseline (agonistic effect) [2]: did not significantly change
average tumor size above pretreatment values [2]: 191%
progressing tumors, % of tumors [2]: 81%
progressing tumors, number of total [2]: 21 of 26
IC50 (human Ishikawa cells): 3.39 ± 0.9 nM
Emax (human Ishikawa cells): 12.8 ± 1.7%
Maximal inhibition of 1 nM E2-induced stimulation of alkaline phosphatase (human Ishikawa cells): 94.31 ± 1.74 (5)

COc1ccc(-c2sc3cc(O)ccc3c2Oc2ccc(OCCN3CCCCC3)cc2)cc1.Cl [LY 353381, 6-hydroxy-3-[4-[2-(1-piperidinyl)ethoxy]phenoxyl]-2-(4-methoxyphenyl) benzo [b] thiophene hydrochloride]
IC50 (human Ishikawa cells): 1.87 ± 0.07 nM
Emax (human Ishikawa cells): 15.5 ± 0.25%
Maximal inhibition of 1 nM E2-induced stimulation of alkaline phosphatase (human Ishikawa cells): 90.25 ± 0.127 (2)

CC/C(=C(/c1ccc(OCCN(C)C)cc1)c1cccc(O)c1)c1ccccc1 [Droloxifene, (E)-3-[1-[4-[2-(Dimethylamino)ethoxy]phenyl]-2-phenyl-1-butenyl] phenol]
inhibition of the stimulatory effect of estrone on epithelial height [1]: 17%
height of uterine epithelial cells, % of the OVX control group value [1]: 101%
ENDOMETRIAL EPITHELIUM THICKNESS (μm) ± SEM [1, 5]: 36.71^b,d ± 0.12 μm
ENDOMETRIAL EPITHELIUM THICKNESS (μm) ± SEM [1, 6]: 18.50 ± 0.07 μm
increase of average tumor size over baseline (agonistic effect) [2]: did not significantly change
average tumor size above pretreatment values [2]: 478%
progressing tumors, % of tumors [2]: 100%
progressing tumors, number of total [2]: 23 of 23

C[C@]12CC[C@@H]3c4ccc(O)cc4CC[C@H]3[C@@H]1CC[C@@H]2O [E2, 17β-estradiol]
ALP (serum alkaline phosphatase activity) [4]: 59 ± 4 IU/L
CHOLESTEROL (serum) [4]: 1.37 ± 0.18 mmol/L
TOTAL FAT [4]: 19.5 ± 2.5 %
LUMBAR SPINE BMD [4, 7]: 0.2457 ± 0.0049 g/cm^2
LUMBAR SPINE Prevention of Bone Loss [4, 7]: 98%
